US5567692A, “9-[(substituted glycyl) amido)]-6-demethyl-6-deoxytetracyclines” (priority 1995, dated 1996)
Where a name gives a salt, the structure may show the parent alone. Read-outs that look alike come from different tables or passages of the source.

Legend:
[1] = test system: S. aureus UBMS 88-5 Tet M; assay: microbe, parasite or virus in culture; format: cell-based; settings: Staphylococcus aureus, UBMS885TETM, 18 h
S. marcescens FPOR 8733 = assay: MIC, agar dilution; format: cell-based; settings: Serratia marcescens, FPOR8733, 18 h
E. coli J3272 Tet D = assay: microbe, parasite or virus in culture; format: cell-based; settings: Escherichia coli, J3272TETD, 18 h
S. aureus IVES 1983 = assay: MIC, agar dilution; format: cell-based; settings: Staphylococcus aureus, IVES1983, 18 h
E. coli J3272 Tet C = assay: microbe, parasite or virus in culture; format: cell-based; settings: Escherichia coli, J3272TETC, 18 h
[2] = test system: E. coli MC 4100 TNIOC Tet B; assay: microbe, parasite or virus in culture; format: cell-based; settings: Escherichia coli, 18 h
E. coli J2175 = assay: MIC, agar dilution; format: cell-based; settings: Escherichia coli, 18 h, read-out: MIC
E. coli UBMS 88-1 Tet B = assay: microbe, parasite or virus in culture; format: cell-based; settings: Escherichia coli, UBMS881TETB, 18 h
S. aureus UBMS 88-4 = assay: MIC, agar dilution; format: cell-based; settings: Staphylococcus aureus, UBMS884, 18 h, S. aureus UBMS 88-4
S. aureus NEMC 8769 = assay: MIC, agar dilution; format: cell-based; settings: Staphylococcus aureus, NEMC8769, 18 h
E. coli J3272 Tet sens = assay: MIC, agar dilution; format: cell-based; settings: Escherichia coli, J3272TETSENS, 18 h
[3] = test system: Staphylococcus aureus strain Smith (tetracycline sensitive); assay: Acute lethal infection in mice, S. aureus Smith; format: in vivo; settings: for ED50: Staphylococcus aureus, 168 h, mice, S. aureus Smith (Sens), 7 day survival, read-out: ED50
S. aureus ATCC 29213 = assay: MIC, agar dilution; format: cell-based; settings: Staphylococcus aureus, ATCC29213, 18 h
[4] = test system: S. aureus UBMS 88-7 Tet K; assay: microbe, parasite or virus in culture; format: cell-based; settings: Staphylococcus aureus, UBMS887TETK, 18 h
S. aureus IVES 2943 = assay: MIC, agar dilution; format: cell-based; settings: Staphylococcus aureus, IVES2943, 18 h, S. aureus IVES 2943; read-out: MIC
E. coli ATCC 25922 = assay: MIC, agar dilution; format: cell-based; settings: Escherichia coli, ATCC25922, 18 h
[5] = test system: Ps. aeruginosa ATCC 27853; assay: MIC, agar dilution; format: cell-based; settings: Pseudomonas aeruginosa, ATCC27853, 18 h, Ps. aeruginosa ATCC 27853; read-out: MIC
S. aureus UBMS 90-3 = assay: MIC, agar dilution; format: cell-based; settings: Staphylococcus aureus, UBMS903, 18 h
E. coli PRP1 Tet A = assay: microbe, parasite or virus in culture; format: cell-based; settings: Escherichia coli, PRP1TETA, 18 h
[6] = test system: S. aureus UBMS 90-2 Tet M; assay: microbe, parasite or virus in culture; format: cell-based; settings: Staphylococcus aureus, UBMS902TETM, 18 h
S. aureus SMITH (MP) = assay: MIC, agar dilution; format: cell-based; settings: Staphylococcus aureus, 18 h
Enterococcus 12201 = assay: MIC, agar dilution; format: cell-based; settings: Enterococcus, 12201, 18 h
E. coli BAJ9003 IMP MUT = assay: microbe, parasite or virus in culture; format: cell-based; settings: Escherichia coli, BAJ9003IMPMUT, 18 h
E. coli UBMS 90-5 = assay: microbe, parasite or virus in culture; format: cell-based; settings: Escherichia coli, UBMS905, 18 h, E. coli UBMS 90-5; read-out: MIC
E. faecalis ATCC 29212 = assay: MIC, agar dilution; format: cell-based; settings: Enterococcus faecalis, ATCC29212, 18 h
E. coli #311 (MP) = assay: MIC, agar dilution; format: cell-based; settings: Escherichia coli, 18 h
E. coli UBMS 89-1 Tet M = assay: microbe, parasite or virus in culture; format: cell-based; settings: Escherichia coli, UBMS891TETM, 18 h
[7] = test system: S. aureus UBMS 90-1 Tet M; assay: microbe, parasite or virus in culture; format: cell-based; settings: Staphylococcus aureus, UBMS901TETM, 18 h
[8] = test system: S. hemolyticus AVHAH 88-3; assay: MIC, agar dilution; format: cell-based; settings: Streptococcus pyogenes, AVHAH883, 18 h
S. aureus ROSE (MP) = assay: MIC, agar dilution; format: cell-based; settings: Staphylococcus aureus, 18 h
E. coli UBMS 90-4 Tet M = assay: microbe, parasite or virus in culture; format: cell-based; settings: Escherichia coli, UBMS904TETM, 18 h
[9] = test system: X. maltophilia NEMC 87210; assay: MIC, agar dilution; format: cell-based; settings: Stenotrophomonas maltophilia, NEMC87210, 18 h
[10] = test system: E. coli UBMS 89-2 Tet sens.; assay: MIC, agar dilution; format: cell-based; settings: Escherichia coli, 18 h

| Compound | MIC (S. marcescens FPOR 8733) [µg/mL] | MIC (E. coli J3272 Tet D) [µg/mL] | MIC (E. coli J3272 Tet C) [µg/mL] | MIC [2] [µg/mL] | MIC (E. coli J2175) [µg/mL] | MIC (E. coli UBMS 88-1 Tet B) [µg/mL] | MIC (E. coli J3272 Tet sens) [µg/mL] | MIC [4] [µg/mL] | MIC (S. aureus IVES 2943) [µg/mL] | MIC (E. coli ATCC 25922) [µg/mL] | MIC [5] [µg/mL] | MIC (E. coli PRP1 Tet A) [µg/mL] | MIC [6] [µg/mL] | MIC (S. aureus SMITH (MP)) [µg/mL] | MIC (Enterococcus 12201) [µg/mL] | MIC (E. coli BAJ9003 IMP MUT) [µg/mL] | MIC (E. coli UBMS 90-5) [µg/mL] | MIC (E. coli #311 (MP)) [µg/mL] | MIC (E. coli UBMS 89-1 Tet M) [µg/mL] | MIC [7] [µg/mL] | further results |
| --- | --- | --- | --- | --- | --- | --- | --- | --- | --- | --- | --- | --- | --- | --- | --- | --- | --- | --- | --- | --- | --- |
| CCCCNCC(=O)Nc1ccc2c(c1O)C(=O)C1=C(O)[C@]3(O)C(=O)C(C(N)=O)=C(O)[C@@H](N(C)C)C3CC1C2 (stereo partly drawn) [H, [4S-(4alpha,12aalpha)]-9-[[(Butylamino)acetyl]amino]-4-(dimethylamino)-1,4,4a,5,5a,6,11,12a-octahydro-3,10,12,12a-tetrahydroxy-1,11-dioxo-2-naphthacenecarboxamide dihydrochloride] | 2 | 0.06 | 0.12 | 0.25 | 0.25 | 0.25 | 0.12 | 1 | 1 | 0.12 | 8 | 0.25 | 0.12 | 0.12 | 0.12 | 0.06 | 0.12 | 0.12 | 0.12 | 0.12 | MIC ([1]; S. aureus UBMS 88-5 Tet M): 0.06 µg/mL; MIC (S. aureus IVES 1983): 2 µg/mL; MIC (S. aureus UBMS 88-4): 0.06 µg/mL; MIC (S. aureus NEMC 8769): 0.03 µg/mL; ED50 ([3]; iv, Intraveneous): 0.5 to 1 mg/kg; ED50 ([3]; po, Oral): > 16 mg/kg; in vivo activity (in words) ([3]; tested intravenously against the minocycline sensitive organism S. aureus Smith): very good in vivo activity; MIC (S. aureus ATCC 29213): 0.06 µg/mL; MIC (S. aureus UBMS 90-3): 0.03 µg/mL; MIC (E. faecalis ATCC 29212; E. faecalis ATCC 29212, read-out: MIC): 0.12 µg/mL; MIC [8]: 0.5 µg/mL; MIC (S. aureus ROSE (MP); read-out: MIC): 4 µg/mL; MIC (E. coli UBMS 90-4 Tet M): 0.12 µg/mL; MIC [9]: 1 µg/mL; MIC [10]: 0.12 µg/mL |
| CC(Br)C(=O)Nc1ccc2c(c1O)C(=O)C1=C(O)[C@]3(O)C(=O)C(C(N)=O)=C(O)[C@@H](N(C)C)C3CC1C2 (stereo partly drawn) [S, [4S-(4alpha,12aalpha)]-9-[(2-Bromo-1-oxopropyl)amino]-4-(dimethylamino)-1,4,4a,5,5a,6,11,12a-octahydro-3,10,12,12a-tetrahydroxy-1,11-dioxo-2-naphthacenecarboxamide dihydrochloride] | > 32 | > 32 | > 32 | > 32 | 16 | > 32 | 4 | 16 | 32 | 8 | > 32 | > 32 | 16 | 1 | 32 | 1 | 8 | 8 | > 32 | 32 | MIC [1]: 32 µg/mL; MIC (S. aureus IVES 1983; S. aureus IVES 1983, read-out: MIC): 32 µg/mL; MIC (S. aureus UBMS 88-4; read-out: MIC): 2 µg/mL; MIC (S. aureus NEMC 8769; read-out: MIC): 0.25 µg/mL; MIC (S. aureus ATCC 29213; S. aureus ATCC 29213, read-out: MIC): 2 µg/mL; MIC (S. aureus UBMS 90-3; S. aureus UBMS 90-3, read-out: MIC): 2 µg/mL; MIC (E. faecalis ATCC 29212): 16 µg/mL; MIC [8]: 8 µg/mL; MIC (S. aureus ROSE (MP)): > 32 µg/mL; MIC (E. coli UBMS 90-4 Tet M): > 32 µg/mL; MIC ([9]; X. maltophilia NEMC 87210, read-out: MIC): 16 µg/mL; MIC [10]: 16 µg/mL |
